Common to all, as to assay type: biochemical
Holding throughout (settings): isolated 6×His-tagged isoform, 1 μM FAM-labeled acetylated peptide, 17 h at 25° C.

Assay [1] deals with T1, HDAC 8 (Homo sapiens, UniProt Q9BY41).
T1 construct: HDACs 1, 2, 3, 6, and 8 were expressed as full length fusion proteins; 6xHis; made in house; host or cells: Sf9 cells (baculovirus)
T1 sequence (Q9BY41 1-377): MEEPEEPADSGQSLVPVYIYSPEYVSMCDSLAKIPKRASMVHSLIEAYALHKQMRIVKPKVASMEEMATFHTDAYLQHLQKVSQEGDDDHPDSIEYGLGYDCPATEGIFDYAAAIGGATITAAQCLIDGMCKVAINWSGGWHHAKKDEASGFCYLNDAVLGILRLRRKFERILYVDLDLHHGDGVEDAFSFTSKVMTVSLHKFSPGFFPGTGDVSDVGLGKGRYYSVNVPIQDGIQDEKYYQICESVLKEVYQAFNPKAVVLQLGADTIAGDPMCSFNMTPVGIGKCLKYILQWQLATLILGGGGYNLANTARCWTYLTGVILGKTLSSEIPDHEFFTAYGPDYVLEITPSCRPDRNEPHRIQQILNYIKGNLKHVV
Kind of assay: Fluorescence-based HDAC isoform assay with electrophoretic separation, HDAC 8. The procedure:
(§1) The inhibitory effects of the compounds of Examples 7 and 9 above on HDAC activity were determined using a fluorescence-based assay with electrophoretic separation of substrate and product carried out using a microfluidic system followed by quantitation of fluorescence intensity in the substrate and product peaks.
(§2) The assays were performed using isolated HDAC isoforms that had been expressed as 6×His-tagged fusion proteins in a baculovirus expression system in Sf9 cells. HDACs 1, 2, 3, 6, and 8 were expressed as full length fusion proteins. For HDAC-4 and 7 only catalytic domains were expressed (HDAC-4 CAT and HDAC-7 CAT). The HDAC10 fusion protein was expressed as a carboxy-terminal deletion of 38 amino acids (residues 632-669). HDAC3 was coexpressed with a fragment of the SMRT gene (residues 395-489) to generate enzymatically active protein. Purified proteins were incubated with 1 μM carboxyfluorescein (FAM)-labeled acetylated peptide substrate and test compound for 17 h at 25° C. in HDAC assay buffer containing 100 mM HEPES (pH 7.5), 25 mM KCl, 0.1% BSA, and 0.01% Triton X-100. […] Substrate and product were separated electrophoretically using a Caliper LabChip 3000 system with blue laser excitation and green fluorescence detection (CCD2). The fluorescence intensity in the substrate and product peaks was determined using the Well Analyzer software on the Caliper system. […]

Assay [2] addresses T2, HDAC 6 (Homo sapiens, UniProt Q9UBN7).
T2 sequence (Q9UBN7 1-1215): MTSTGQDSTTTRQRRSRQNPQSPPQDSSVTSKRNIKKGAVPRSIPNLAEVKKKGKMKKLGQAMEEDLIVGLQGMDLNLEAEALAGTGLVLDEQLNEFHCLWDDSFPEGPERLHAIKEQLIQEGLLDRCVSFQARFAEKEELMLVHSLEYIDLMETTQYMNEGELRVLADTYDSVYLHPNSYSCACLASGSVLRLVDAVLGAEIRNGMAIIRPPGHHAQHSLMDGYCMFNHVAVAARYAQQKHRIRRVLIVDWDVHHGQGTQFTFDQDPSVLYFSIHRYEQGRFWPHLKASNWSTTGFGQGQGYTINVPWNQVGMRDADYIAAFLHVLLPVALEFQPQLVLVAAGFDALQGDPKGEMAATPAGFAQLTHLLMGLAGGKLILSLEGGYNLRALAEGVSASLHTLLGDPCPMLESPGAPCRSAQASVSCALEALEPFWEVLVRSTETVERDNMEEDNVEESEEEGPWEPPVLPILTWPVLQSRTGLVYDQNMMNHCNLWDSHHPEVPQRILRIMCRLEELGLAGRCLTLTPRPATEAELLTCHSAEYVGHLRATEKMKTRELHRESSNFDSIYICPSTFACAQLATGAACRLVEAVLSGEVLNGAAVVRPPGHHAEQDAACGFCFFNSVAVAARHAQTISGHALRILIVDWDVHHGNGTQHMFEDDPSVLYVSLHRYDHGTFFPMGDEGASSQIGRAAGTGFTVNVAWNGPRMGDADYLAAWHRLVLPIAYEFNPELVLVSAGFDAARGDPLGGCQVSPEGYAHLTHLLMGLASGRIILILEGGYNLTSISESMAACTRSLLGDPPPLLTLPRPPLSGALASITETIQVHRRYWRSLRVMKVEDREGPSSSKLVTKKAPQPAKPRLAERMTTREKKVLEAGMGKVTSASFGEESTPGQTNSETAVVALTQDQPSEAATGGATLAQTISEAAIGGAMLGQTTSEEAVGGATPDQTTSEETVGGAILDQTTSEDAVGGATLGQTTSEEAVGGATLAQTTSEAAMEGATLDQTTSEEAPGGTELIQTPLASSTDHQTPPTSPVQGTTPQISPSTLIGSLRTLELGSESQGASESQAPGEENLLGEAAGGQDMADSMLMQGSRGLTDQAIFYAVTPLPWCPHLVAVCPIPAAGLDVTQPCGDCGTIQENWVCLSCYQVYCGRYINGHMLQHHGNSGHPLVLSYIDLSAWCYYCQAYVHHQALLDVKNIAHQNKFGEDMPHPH
Kind of assay: Fluorescence-based HDAC isoform assay with electrophoretic separation, HDAC 6. The procedure: as §1, §2

The target of assay [3] is T3, HDAC 1 (Homo sapiens, UniProt Q13547).
T3 construct: HDACs 1, 2, 3, 6, and 8 were expressed as full length fusion proteins; 6xHis; made in house; host or cells: Sf9 cells (baculovirus)
Kind of assay: Fluorescence-based HDAC isoform assay with electrophoretic separation, HDAC 1. As for the experimental part: as §1, §2

In assay [4] the target is T4, HDAC 2 (Homo sapiens, UniProt Q92769).
T4 construct: HDACs 1, 2, 3, 6, and 8 were expressed as full length fusion proteins; 6xHis; made in house; host or cells: Sf9 cells (baculovirus)
As to the kind of experiment: Fluorescence-based HDAC isoform assay with electrophoretic separation, HDAC 2. As for the experimental part: as §1, §2

SMILES strings stand for the structures.

T3 sequence (Q13547 whole entry, species assumed, the tested form may be a part): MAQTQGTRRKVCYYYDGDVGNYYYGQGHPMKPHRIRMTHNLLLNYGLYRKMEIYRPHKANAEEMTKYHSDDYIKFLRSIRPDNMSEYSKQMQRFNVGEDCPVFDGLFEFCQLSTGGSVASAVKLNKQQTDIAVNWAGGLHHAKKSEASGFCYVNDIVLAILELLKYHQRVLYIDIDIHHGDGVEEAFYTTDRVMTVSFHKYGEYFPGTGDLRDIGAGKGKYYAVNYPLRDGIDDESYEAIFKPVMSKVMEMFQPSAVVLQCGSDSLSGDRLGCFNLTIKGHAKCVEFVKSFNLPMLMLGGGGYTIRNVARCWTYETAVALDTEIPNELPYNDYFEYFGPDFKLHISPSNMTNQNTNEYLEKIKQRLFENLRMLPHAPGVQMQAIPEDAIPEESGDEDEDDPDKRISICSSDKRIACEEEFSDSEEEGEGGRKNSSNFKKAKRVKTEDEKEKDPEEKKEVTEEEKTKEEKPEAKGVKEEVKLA
T4 sequence (Q92769 whole entry, species assumed, the tested form may be a part): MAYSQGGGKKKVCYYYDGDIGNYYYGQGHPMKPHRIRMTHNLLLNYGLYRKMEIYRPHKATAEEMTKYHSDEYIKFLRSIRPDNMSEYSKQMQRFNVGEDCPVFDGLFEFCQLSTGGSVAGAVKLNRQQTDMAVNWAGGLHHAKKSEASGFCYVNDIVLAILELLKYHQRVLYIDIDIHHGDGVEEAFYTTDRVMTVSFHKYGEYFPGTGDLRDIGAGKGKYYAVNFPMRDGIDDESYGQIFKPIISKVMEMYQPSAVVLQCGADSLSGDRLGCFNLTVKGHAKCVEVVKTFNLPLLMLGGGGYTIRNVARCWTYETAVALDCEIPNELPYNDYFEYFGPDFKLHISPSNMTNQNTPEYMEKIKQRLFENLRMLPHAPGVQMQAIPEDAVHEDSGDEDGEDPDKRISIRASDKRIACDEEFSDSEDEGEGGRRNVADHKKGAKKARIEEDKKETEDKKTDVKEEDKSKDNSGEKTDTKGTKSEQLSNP

One may read the IC50 as the concentration needed to halve the response being measured. Read a low IC50 as greater potency in that assay. Regarding `C=C1CN(Cc2ccc(C(=O)Nc3ccccc3N)cc2)C(CC(=O)O)c2ccccc21` (centres unmarked) [Example 9, [2-(4-{[(2-Aminophenyl)amino]carbonyl}benzyl)-4-methylene-1,2,3,4-tetra hydroisoquinolin-1-yl]acetic acid], the IC50 is over 30 µM in assay [1], over 30 µM in assay [2], over 30 µM in assay [3] and 2.11 µM in assay [4].
Take `C=C1CN(Cc2ccc(C(=O)Nc3ccccc3N)cc2)C(=O)c2ccccc21` [Example 7, N-(2-Aminophenyl)-4-[(4-methylene-1-oxo-3,4-dihydroisoquino-2(1H)-yl)methyl]benzamide]: the IC50 is over 30 µM in assay [1], over 30 µM in assay [2], 8.7 µM in assay [3] and 0.0544 µM in assay [4].

Values taken from patent US20140135327A1, “N- (2 -AMINOPHENYL) BENZAMIDE DERIVATIVES AS HISTONE DEACETYLASE INHIBITORS” (CANCER RESEARCH TECHNOLOGY LIMITED, priority 2011, published 2014).
